Laboratory results published in patent publication US20240270698A2, “NOVEL PYRIMIDINE DERIVATIVE AND USE THEREOF” (KOREA RESEARCH INSTITUTE OF CHEMICAL TECHNOLOGY, priority 2019, published 2024).

Assays:
[1] = target: T1, human recombinant LRRK2 protein (Homo sapiens, UniProt Q5S007); assay: LRRK2 kinase activity assay (Eurofins, gamma-33P-ATP, filtermat scintillation counting); format: biochemical; details: human recombinant LRRK2, 40 minutes at room temperature
T1 construct: purchased Eurofins
T1 sequence (Q5S007 whole entry): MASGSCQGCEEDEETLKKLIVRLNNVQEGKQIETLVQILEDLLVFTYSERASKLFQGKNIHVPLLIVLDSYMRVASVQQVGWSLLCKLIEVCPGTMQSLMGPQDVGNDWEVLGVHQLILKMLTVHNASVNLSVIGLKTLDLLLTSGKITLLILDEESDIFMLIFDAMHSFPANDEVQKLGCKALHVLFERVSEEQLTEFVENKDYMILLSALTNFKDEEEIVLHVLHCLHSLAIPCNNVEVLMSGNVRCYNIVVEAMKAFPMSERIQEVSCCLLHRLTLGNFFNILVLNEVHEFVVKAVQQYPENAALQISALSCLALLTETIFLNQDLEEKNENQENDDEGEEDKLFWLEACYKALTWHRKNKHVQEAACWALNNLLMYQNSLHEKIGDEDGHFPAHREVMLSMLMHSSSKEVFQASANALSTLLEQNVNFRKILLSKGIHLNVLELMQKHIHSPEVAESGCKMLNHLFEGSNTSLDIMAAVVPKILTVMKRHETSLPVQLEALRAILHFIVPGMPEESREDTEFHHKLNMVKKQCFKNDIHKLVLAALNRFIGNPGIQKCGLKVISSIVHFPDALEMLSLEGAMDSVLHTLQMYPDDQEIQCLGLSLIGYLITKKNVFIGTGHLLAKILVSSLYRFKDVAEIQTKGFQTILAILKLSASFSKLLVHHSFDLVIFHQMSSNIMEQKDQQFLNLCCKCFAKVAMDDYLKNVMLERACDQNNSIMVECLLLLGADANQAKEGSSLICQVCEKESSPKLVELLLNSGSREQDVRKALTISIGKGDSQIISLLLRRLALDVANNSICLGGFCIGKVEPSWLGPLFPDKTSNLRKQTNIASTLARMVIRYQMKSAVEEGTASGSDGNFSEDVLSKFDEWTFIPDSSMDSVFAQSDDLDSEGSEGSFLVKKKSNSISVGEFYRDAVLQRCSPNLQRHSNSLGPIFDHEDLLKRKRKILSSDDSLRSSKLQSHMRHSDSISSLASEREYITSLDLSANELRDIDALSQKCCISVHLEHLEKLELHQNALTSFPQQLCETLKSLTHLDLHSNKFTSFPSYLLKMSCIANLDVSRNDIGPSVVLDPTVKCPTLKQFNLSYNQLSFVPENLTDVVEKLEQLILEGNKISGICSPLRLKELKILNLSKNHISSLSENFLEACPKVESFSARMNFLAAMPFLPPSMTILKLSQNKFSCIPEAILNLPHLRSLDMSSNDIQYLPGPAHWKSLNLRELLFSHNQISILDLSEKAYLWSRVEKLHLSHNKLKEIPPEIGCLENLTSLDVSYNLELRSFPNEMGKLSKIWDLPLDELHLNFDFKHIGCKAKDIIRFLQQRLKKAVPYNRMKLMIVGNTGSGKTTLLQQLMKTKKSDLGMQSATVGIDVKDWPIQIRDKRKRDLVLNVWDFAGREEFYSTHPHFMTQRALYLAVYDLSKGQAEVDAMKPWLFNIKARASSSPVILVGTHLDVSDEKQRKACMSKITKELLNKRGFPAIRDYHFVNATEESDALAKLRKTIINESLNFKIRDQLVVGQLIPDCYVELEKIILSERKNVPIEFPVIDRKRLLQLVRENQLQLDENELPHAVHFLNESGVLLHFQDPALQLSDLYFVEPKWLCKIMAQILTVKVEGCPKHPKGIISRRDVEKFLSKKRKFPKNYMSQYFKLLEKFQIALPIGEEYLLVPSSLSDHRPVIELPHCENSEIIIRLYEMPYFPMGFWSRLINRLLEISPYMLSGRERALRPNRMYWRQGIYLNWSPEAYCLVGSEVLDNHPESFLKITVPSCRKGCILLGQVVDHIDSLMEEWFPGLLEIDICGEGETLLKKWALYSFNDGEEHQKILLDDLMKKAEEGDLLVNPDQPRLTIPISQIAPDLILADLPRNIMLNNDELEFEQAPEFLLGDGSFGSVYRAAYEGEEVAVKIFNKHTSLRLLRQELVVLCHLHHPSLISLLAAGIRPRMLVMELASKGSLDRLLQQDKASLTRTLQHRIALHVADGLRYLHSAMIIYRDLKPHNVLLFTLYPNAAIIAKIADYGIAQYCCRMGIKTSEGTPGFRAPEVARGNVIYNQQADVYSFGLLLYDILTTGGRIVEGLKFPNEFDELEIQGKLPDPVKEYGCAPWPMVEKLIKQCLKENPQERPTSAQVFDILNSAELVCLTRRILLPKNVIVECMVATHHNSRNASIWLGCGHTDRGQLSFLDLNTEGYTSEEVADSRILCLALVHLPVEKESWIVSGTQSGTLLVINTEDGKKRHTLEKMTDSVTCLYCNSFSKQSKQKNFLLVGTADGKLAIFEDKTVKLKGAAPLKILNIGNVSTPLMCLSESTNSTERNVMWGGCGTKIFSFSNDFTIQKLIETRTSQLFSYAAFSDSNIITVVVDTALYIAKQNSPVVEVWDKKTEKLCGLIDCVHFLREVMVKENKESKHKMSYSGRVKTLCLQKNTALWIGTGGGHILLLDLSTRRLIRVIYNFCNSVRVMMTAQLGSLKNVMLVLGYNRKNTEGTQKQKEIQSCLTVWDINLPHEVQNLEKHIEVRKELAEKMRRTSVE

[2] = system: HS746T cancer cells; assay: Anticancer activity, cell viability by CCK-8, HS746T; format: cell-based; details: 72 hours
Procedure, shortened: (§1)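 HS746T or HepG2 cells seeded at 4,000 cells/well, left 24 h, then exposed to compounds for 72 h. Viability measured by CCK-8 and expressed as % of untreated control.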

[3] = system: HepG2 cancer cells; assay: Anticancer activity, cell viability by CCK-8, HepG2; format: cell-based; details: HepG2, 10 μM, 72 hours
Procedure, shortened: as §1

[4] = target: T2, human recombinant MLK3 protein (Homo sapiens, UniProt Q16584); assay: MLK3 kinase activity assay (Eurofins, gamma-33P-ATP, filtermat scintillation counting); format: biochemical; details: human recombinant MLK3, 120 minutes at room temperature
T2 construct: purchased Eurofins
T2 sequence (Q16584 whole entry): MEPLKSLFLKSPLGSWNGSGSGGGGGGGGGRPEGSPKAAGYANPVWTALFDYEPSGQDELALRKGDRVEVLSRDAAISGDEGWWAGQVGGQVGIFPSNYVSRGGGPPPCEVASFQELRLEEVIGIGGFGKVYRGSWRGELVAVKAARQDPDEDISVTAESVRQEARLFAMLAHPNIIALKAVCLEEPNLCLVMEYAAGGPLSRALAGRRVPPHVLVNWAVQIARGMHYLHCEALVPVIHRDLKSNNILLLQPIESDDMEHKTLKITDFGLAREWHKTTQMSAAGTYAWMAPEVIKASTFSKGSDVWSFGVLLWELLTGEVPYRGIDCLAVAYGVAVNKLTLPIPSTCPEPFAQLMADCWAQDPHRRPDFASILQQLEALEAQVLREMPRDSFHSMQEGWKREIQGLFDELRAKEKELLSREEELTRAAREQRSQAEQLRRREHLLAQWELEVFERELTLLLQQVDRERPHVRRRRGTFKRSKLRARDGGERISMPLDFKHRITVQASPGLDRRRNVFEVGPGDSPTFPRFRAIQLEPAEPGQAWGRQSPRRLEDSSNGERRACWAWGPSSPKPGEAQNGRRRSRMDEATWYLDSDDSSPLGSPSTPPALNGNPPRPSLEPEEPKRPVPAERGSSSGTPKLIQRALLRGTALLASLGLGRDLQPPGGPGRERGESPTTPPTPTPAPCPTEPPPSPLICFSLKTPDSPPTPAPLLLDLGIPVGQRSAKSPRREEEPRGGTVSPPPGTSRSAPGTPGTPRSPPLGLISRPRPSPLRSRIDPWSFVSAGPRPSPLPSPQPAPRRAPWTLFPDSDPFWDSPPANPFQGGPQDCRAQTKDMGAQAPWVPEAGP

IC50 [1] [nM]	IC50 [4] [nM]	SMILES	Cell viability (% of Con. 10 μM) HS746T [2]	Cell viability (% of Con. 10 μM) HepG2 [3]
1 to 10	1 to 10	CP(C)(=O)c1ccccc1Nc1nc(Nc2ccc3[nH]nc(-c4ccncc4)c3c2)ncc1Cl [compound 104, (2-((5-Chloro-2-((3-(pyridin-4-yl)-1H-indazol-5-yl)amino)pyrimidin-4-yl)amino)phenyl)dimethylphosphine oxide]	11 % of Con.	30 % of Con.
10 to 100	1 to 10	CP(C)(=O)c1ccccc1Nc1nc(Nc2ccc3[nH]nc(-c4ccc(C#N)cc4)c3c2)ncc1Cl [compound 105, 4-(5-((5-Chloro-4-((2-(dimethylphosphoryl)phenyl)amino)pyrimidin-2-yl)amino)-1H-indazol-3-yl)benzonitrile]	23 % of Con.	55 % of Con.
10 to 100	1 to 10	CC(=O)c1ccc(-c2n[nH]c3ccc(Nc4ncc(Cl)c(Nc5ccccc5P(C)(C)=O)n4)cc23)cc1 [compound 106, 1-(4-(5-((5-chloro-4-((2-(dimethylphosphoryl)phenyl)amino)pyrimidin-2-yl)amino)-1H-indazol-3-yl)phenyl)ethan-1-one]	17 % of Con.	75 % of Con.
1 to 10	1 to 10	CP(C)(=O)c1ccccc1Nc1nc(Nc2ccc3[nH]nc(-c4ccc(F)c(Cl)c4)c3c2)ncc1Cl [compound 107, (2-((5-Chloro-2-((3-(3-chloro-4-fluorophenyl)-1H-indazol-5-yl)amino)pyrimidin-4-yl)amino)phenyl)dimethylphosphine oxide]	11 % of Con.	63 % of Con.
10 to 100	1 to 10	CP(C)(=O)c1ccccc1Nc1nc(Nc2ccc3[nH]nc(-c4ccc(O)cc4)c3c2)ncc1Cl [compound 108, (2-((5-chloro-2-((3-(4-hydroxyphenyl)-1H-indazol-5-yl)amino)pyrimidin-4-yl)amino)phenyl)dimethylphosphine oxide]	8 % of Con.	67 % of Con.
10 to 100	1 to 10	COc1ccc(-c2n[nH]c3ccc(Nc4ncc(Cl)c(Nc5ccccc5P(C)(C)=O)n4)cc23)cc1F [compound 109]	25 % of Con.	53 % of Con.
10 to 100	1 to 10	CP(C)(=O)c1ccccc1Nc1nc(Nc2ccc3[nH]nc(-c4ccc(OC(F)(F)F)cc4)c3c2)ncc1Cl [compound 110, (2-((5-Chloro-2-((3-(4-(trifluoromethoxy)phenyl)-1H-indazol-5-yl)amino)pyrimidin-4-yl)amino)phenyl)dimethylphosphine oxide]	12 % of Con.	24 % of Con.
10 to 100	1 to 10	CP(C)(=O)c1ccccc1Nc1nc(Nc2ccc3[nH]nc(-c4ccc(Cl)c(C(F)(F)F)c4)c3c2)ncc1Cl [compound 111, (2-((5-Chloro-2-((3-(4-chloro-3-(trifluoromethyl)phenyl)-1H-indazol-5-yl)amino)pyrimidin-4-yl)amino)phenyl)dimethylphosphine oxide]	7 % of Con.	7 % of Con.
10 to 100	1 to 10	Cc1ccc(-c2n[nH]c3ccc(Nc4ncc(Cl)c(Nc5ccccc5P(C)(C)=O)n4)cc23)cc1Cl [compound 112, (2-((5-Chloro-2-((3-(3-chloro-4-methylphenyl)-1H-indazol-5-yl)amino)pyrimidin-4-yl)amino)phenyl)dimethylphosphine oxide]	7 % of Con.	6 % of Con.
10 to 100	1 to 10	COc1cc(Cl)cc(-c2n[nH]c3ccc(Nc4ncc(Cl)c(Nc5ccccc5P(C)(C)=O)n4)cc23)c1 [compound 113, (2-((5-Chloro-2-((3-(3-chloro-5-methoxyphenyl)-1H-indazol-5-yl)amino)pyrimidin-4-yl)amino)phenyl)dimethylphosphine oxide]	26 % of Con.	16 % of Con.
10 to 100	1 to 10	CP(C)(=O)c1ccccc1Nc1nc(Nc2ccc3[nH]nc(-c4ccc(S(C)(=O)=O)cc4)c3c2)ncc1Cl [compound 114, (2-((5-Chloro-2-((3-(4-(methylsulfonyl)phenyl)-1H-indazol-5-yl)amino)pyrimidin-4-yl)amino)phenyl)dimethylphosphine oxide]	33 % of Con.	68 % of Con.
1 to 10	1 to 10	CC(C)Oc1cc(F)cc(-c2n[nH]c3ccc(Nc4ncc(Cl)c(Nc5ccccc5P(C)(C)=O)n4)cc23)c1 [compound 115, (2-((5-Chloro-2-((3-(3-fluoro-5-isopropoxyphenyl)-1H-indazol-5-yl)amino)pyrimidin-4-yl)amino)phenyl)dimethylphosphine oxide]	10 % of Con.	50 % of Con.
10 to 100	1 to 10	CP(C)(=O)c1ccccc1Nc1nc(Nc2ccc3[nH]nc(-c4cccc(C#N)c4)c3c2)ncc1Cl [compound 116, 3-(5-((5-Chloro-4-((2-(dimethylphosphoryl)phenyl)amino)pyrimidin-2-yl)amino)-1H-indazol-3-yl)benzonitrile]	19 % of Con.	32 % of Con.
10 to 100	1 to 10	CC(C)(C)OC(=O)N1CCN(c2ccc(-c3n[nH]c4ccc(Nc5ncc(Cl)c(Nc6ccccc6P(C)(C)=O)n5)cc34)cc2)CC1 [compound 117, Tert-butyl 4-(4-(5-((5-chloro-4-((2-(dimethylphosphoryl)phenyl)amino)pyrimidin-2-yl)amino)-1H-indazol-3-yl)phenyl)piperazine-1-carboxylate]	20 % of Con.	68 % of Con.
10 to 100	1 to 10	CP(C)(=O)c1ccccc1Nc1nc(Nc2ccc3[nH]nc(-c4cccc(O)c4)c3c2)ncc1Cl [compound 118, (2-((5-chloro-2-((3-(3-hydroxyphenyl)-1H-indazol-5-yl)amino)pyrimidin-4-yl)amino)phenyl)dimethylphosphine oxide]	5 % of Con.	43 % of Con.
